The text below walks through data of patent US9803021B2 (The Regents of the University of California, priority 2012, dated 2017).

“Also recorded” adds a separate entry of the source.

For assay [1], the system named is ANBL-6. Description: MTS assay (cell viability / metabolic activity). The following applies: ANBL-6, 3 days or 7 days. It counts as cell-based, human. The protocol:
(§1) Percent cell viability was determined using MTS solution (Promega, Madison, Wis.) by measuring absorbance at 490 nm using a Synergy HT Multi-Detection Microplate Reader (BioTek Instruments, Inc., Winooski, Vt.) with untreated cells being 100%. GraphPad Prism (GraphPad Software Inc., La Jolla, Calif.) was used to analyze data by non-linear regression with the log (inhibitor) vs. the response with a variable slope with the IC50 calculated. Data are expressed as a percentage of maximum metabolic activity. The experiments were performed in triplicate.
(§2) Metabolic activity was determined using MTS solution (Promega) by measuring absorbance at 490 nm using a Synergy HT Multi-Detection Microplate Reader (BioTek Instruments Inc.) with untreated cells being 100%. GraphPad Prism (GraphPad Software Inc.) was used to analyze data by non-linear regression with the log (inhibitor) versus the response with a variable slope. Data are expressed as a percentage of maximum metabolic activity. The experiments were performed in triplicate.
(In general: Formazan colour is commonly taken as a measure of viable cells.)

Assay [2] concerns MM1-144. Description: MTS assay (cell viability / metabolic activity). It is filed as cell-based, human. The following applies: MM144 (MM1-144), 3 days. The protocol:
as §1, §2

The subject of assay [3] is NCI-H929. Description: MTS assay (cell viability / metabolic activity). It is filed as cell-based, human. The note with it: 3 days. The protocol:
as §1, §2

The test system of assay [4] is OCI-My5. Description: MTS assay (cell viability / metabolic activity). It is filed as cell-based, human. The note with it: OCI-My5, 3 days. The protocol: as §1, §2
The subject of assay [5] is U266. Description: MTS assay (cell viability / metabolic activity). It is filed as cell-based, human. The note with it: U266, 3 days. The procedure: as §1, §2
The test system of assay [6] is ANBL-6. Description: Senescence induced β-gal activity at pH 6 (C12FDG, flow cytometry). It is filed as cell-based, human. The note with it: ANBL-6, 1 nM, 3 days (data not shown). The procedure:
(§3) Senescence induced β-galactosidase (β-gal) activity was detected as described previously (Debacq-Chainiaux et al. (2009) Nature Protocols, 4: 1798-1806). […] To induce lysosomal alkalinization, cells were incubated in 100 nM bafilomycin A1 (Sigma) for 1 h. Then cells were incubated for 30 min with the β-gal substrate dodecanoylaminofluorescein di-β-D-galactopyranoside (C12FDG; Invitrogen), which becomes fluorescent after cleavage by β-gal. After washing twice with cold PBS, cells were resuspended in cold PBS containing 1 mM phenylethyl thiogalactoside (PETG), a β-gal inhibitor, and analyzed by flow cytometry for C12-fluorescein.
(§4) Intracellular β-galactosidase (β-gal) activity was measured as an indicator for replicative senescence. […] After treatment, cells were incubated with 100 nM bafilomycin A1 (Sigma) for 1 hour to induce lysosomal alkalinization. Then cells were incubated for 30 minutes with the 33 μM of β-gal substrate dodecanoylaminofluorescein di-β-D-galactopyranoside (C12FDG; Invitrogen), which becomes fluorescent after cleavage to C12-fluorescein. After washing twice with cold PBS, cells were resuspended in cold PBS containing 1 mM phenylethyl thiogalactoside (PETG), a β-gal inhibitor, and analyzed by flow cytometry for C12-fluorescein.
Background: In flow cytometry, cells or beads pass a laser one at a time.

For assay [7], the system named is OCI-My5. The assay is described as above. The note with it: OCI-My5, 1 nM, 3 days (also 4, 6, 7 days). It is filed as cell-based, human. The protocol: as §3, §4
The subject of assay [8] is U266. The assay is described as above. It counts as cell-based, human. The note with it: U266, 1 nM, 3 days. The procedure:
as §3, §4

Assay [9] deals with OCI-My 5 cells. Description: Cell proliferation assay (3[H]-thymidine incorporation). The following applies: OCI-My 5, 0.3 pM-25 nM, 3 days. It counts as cell-based, human. The protocol:
The proliferative status of the cells was determined by measuring ^3[H]-thymidine incorporation.

Assay [10] concerns primary myeloma cells from patients. Description: Treatment of primary myeloma cells from patients (trypan blue / MTT). The note with it: 25 nM, 72 h. It counts as cell-based, human. The protocol: Trypan blue and MTT assays were used to determine the number of viable cells. The percentage of viable recovered cells was calculated based upon the number of viable cells recovered from DMSO-treated control cells, which was arbitrarily designated as 100%.
Percent viable cell recovery was determined by trypan blue staining, with untreated control cells designated as 100%.

For assay [11], the system named is OCI-My 5 tumors. Description: OCI-My5 xenograft model in SCID mice. It is filed as in vivo, mouse. The note with it: OCI-My5 s.c., 100 μg i.v. on days 14, 16, 18. An excerpt:
Eight mice were included in each group.
Each group consisted of eight mice.

Assay [12] deals with Daudi cells. Description: Binding of anti-CD138 IgG to Daudi cells. The arrangement: species or system human. The note with it: data not shown.
Assay [13] concerns U266 tumors. Description: U266 xenograft model in NSG mice. The following applies: U266 s.c., 100 μg on days 14, 16, 18.
Description: For U266 tumors, NOD scid IL-2 receptor gamma chain knock out (NSG) mice were injected subcutaneously with 1×10^7 U226 cells and treated on days 14, 16 and 18 with 100 μg of the indicated proteins. […] Survival was monitored as well as the size of the tumors.
For U266 tumors, experiments were carried out as described above except that NOD-scid IL2rγ^null (NSG) mice were used.

In the case of “anti-CD138: Unfused human anti-CD138 IgG1 with VH and VL of antibody B-B4 [reference compound]”, the “cell viability / growth inhibition (MTS assay), result in words” value in [1], in assay [2], in [3], in [4] and in [5] was “no effect” throughout. Moreover, the “β-gal activity at pH 6 (senescence), result in words” value in assay [6] is recorded as “no increases”; in assay [7] it was “little or no increase in β-gal activity”; in [8] it was “no increase under any conditions”. Moreover, the “proliferation (3[H]-thymidine incorporation), result in words” value in assay [9] was “did not decrease the ability of the cells to proliferate”. The “viability of primary myeloma cells, result in words” value in assay [10] was “little effect”. Moreover, in assay [11], the “survival / protection, result in words” value is reported as “increased survival slightly; also recorded: did not differ significantly from PBS treated mice”. In addition, the “binding to Daudi cells” value in assay [12] is “did not bind to Daudi cells”. Further, in [13], the “survival / protection against tumor growth, result in words” value is listed as “significant protection”.
